Like-named read-outs stand apart in the source and are kept apart here.

From article PMC10447463, “Data-mining unveils structure–property–activity correlation of viral infectivity enhancing self-assembling peptides” (Nature Communications, 2023) come the findings set out here.

Data set [1] relates to HIV-1 infection of TZM-bl cells. Nature of the data set: HIV-1 infectivity enhancement assay, β-galactosidase luminescence. The following applies: for Log10 Inf. rel. to EF-C: log10 of HIV-1 infection of TZM-bl cells relative to EF-C, Fig S15 source data, asymmetric std dev errors. It counts as cell-based.
The nature of data set [2]: Turbidity, derived count rate of scattered light. It is filed as physicochemical. The following applies: for Log Count Rate: log of derived count rate. The gist of the method: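 Samples: 1 mg/mL in PBS pH 7.4 (from DMSO), 1 d at RT, then diluted in 1 mM KCl immediately before measurement. Triplicates, two independent runs averaged.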
Data set [3] can be described thus: Zeta-potential measurement. The settings on record: for Zeta-pot. / mV: zeta potential of peptide, Fig S15 source data. It counts as physicochemical. A digest of the protocol:
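Peptides from a 10 mg/mL DMSO stock were brought to 1 mg/mL in PBS (pH 7.4) and aged 1 d at RT. Just before reading, they were diluted into 1 mM aqueous KCl, and zeta potential was calculated from electrophoretic mobility with the Smoluchowski formula.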

Where [4] appears, read: Feb2021, 1.3 µM value relative to virus only (0 µM).
Where [5] appears, read: Feb2021, Log10 of infectivity relative to EF-C.
Where [6] appears, read: Feb2021, n-fold enhancement relative to EF-C.
Where [7] appears, read: Feb2021, n-fold infectivity relative to EF-C.
The mark [8] stands for this setting: Feb2021, unrounded values of the 1.3 µM column.
The mark [9] stands for this setting: Feb2021 run, infectivity n-fold relative to virus alone.
The mark [10] stands for this setting: Feb2021 run, log10 of infectivity relative to EF-C.
Where [11] appears, read: Feb2021 run, n-fold infectivity relative to EF-C.
Where [12] appears, read: infectivity class (low / medium / high) of each library peptide, main list in c1-c6, same classes repeated in sub-lists of sequences containing the hydrophobicity/charge patterns P+,H0,P+,H0,P0,H0,P0, P+,H0,P0,H0,P0,H0,P0, P+,H0,P0,H0.
The mark [13] stands for this setting: category 1 or 0 from count rate, key not given.
[14] abbreviates: derived count rate of scattered light, mean, std deviation in next column.
The mark [15] stands for this setting: derived count rate of scattered light, mean, std deviation in separate column.

Turning to QCKIKIQINMWQ [EF-C opt], the “n-fold to virus (Feb2021)” value in data set [1] (setting [4]) and in data set [1] (setting [9]) was 43.54 throughout. The “Log10 of Rel to EFC (Feb2021)” value in data set [1] (setting [5]) and in data set [1] (setting [10]) was 0.01546 throughout. In addition, the “Rel-to EFC (Feb-2021)” value in data set [1] (setting [6]), in data set [1] (setting [7]) and in data set [1] (setting [11]) was 1.036 in each case. The “Absolute Infectivity / RLU /s (Feb2021)” value in data set [1] (setting [8]) came out at 21221.11111 RLU /s. Further, the “Rel-to EFC” value in data set [1] (Fig S8 panels B, D, infectivity enhancement relative to EF-C) is 1.036. In addition, in data set [1] (Fig S8 panels B, D, infectivity n-fold relative to virus alone), the n-fold to virus came to 43.54. Also, the infectivity entry in data set [1] (setting [12]) was “high”; in data set [1] (infectivity class (low / medium / high) of the peptide in the sequence-pattern analysis, Fig. S22-A4, class limits not given), “high”. In data set [1], the “Log10 Inf. rel. to EF-C” value turned out to be 0.01546. For the same sequence, the “Log Count Rate” value in data set [2] (Fig S8 panels A, C, asymmetric log errors) is 3.918; in data set [2] (Fig S8 panels B, D), 3.918. For the same sequence, the “Count Rate” value in data set [2] (Fig S8 panels B, D, turbidity, derived count rate of scattered light) was 8271.27. Besides, the “Zeta Count Rate Category” value is recorded as 1 in data set [2] (category 1/0, no key printed) and 1 in data set [2] (setting [13]). Besides, the “Zeta Count Rate / kcps” value in data set [2] (setting [14]) and in data set [2] (setting [15]) was 8271 kcps in each case. The “Zeta category ( +1 = if > 4 mV;-1 = if < -4 mV; 0 = -4mV to 4 mV)” value (“Zeta category” for short) in data set [3] and in data set [3] (category from zeta potential) was 1 (+1 = if > 4 mV) throughout. For the same sequence, the “Zeta Pot. / mV” value in data set [3] (mean, Std Zeta in next column) is given as 11.73 mV; in data set [3] (mean, Std in separate column) it was 11.73 mV. Besides, the “Zeta-pot. / mV” value in data set [3] is 11.73 mV.

Consider KFKFQFNM [BL6a], for which the “n-fold to virus (Feb2021)” value in data set [1] (setting [4]) and in data set [1] (setting [9]) was 19.81 in each case. Also, the “Log10 of Rel to EFC (Feb2021)” value in data set [1] (setting [5]) and in data set [1] (setting [10]) was -0.3265 each time. The “Rel-to EFC (Feb-2021)” value in data set [1] (setting [6]), in data set [1] (setting [7]) and in data set [1] (setting [11]) was 0.4715 each time. In addition, the “Absolute Infectivity / RLU /s (Feb2021)” value in data set [1] (setting [8]) is recorded as 7067 RLU /s. In addition, the infectivity result in data set [1] (setting [12]) was “medium”. For the same sequence, the “Log10 Inf. rel. to EF-C” value in data set [1] is given as -0.3265. The “Zeta Count Rate Category” value in data set [2] (category 1/0, no key printed) came out at 1; in data set [2] (setting [13]), 1. Besides, the “Zeta Count Rate / kcps” value in data set [2] (setting [14]) and in data set [2] (setting [15]) was 131.8 kcps throughout. Besides, the “Zeta category” value in data set [3] and in data set [3] (category from zeta potential) was 1 (+1 = if > 4 mV) in each case. For the same sequence, the “Zeta Pot. / mV” value is reported as 13.9 mV in data set [3] (mean, Std Zeta in next column) and 13.9 mV in data set [3] (mean, Std in separate column). In data set [3], the “Zeta-pot. / mV” value came to 13.9 mV.

For the sequence QCKIKQII [CK6], the “Log10 of Rel to EFC (Feb2021)” value in data set [1] (setting [5]) and in data set [1] (setting [10]) was -2.189 each time. Moreover, the “Absolute Infectivity / RLU /s (Feb2021)” value in data set [1] (Feb2021, figures match the 1.3 µM column) worked out at 206.7 RLU /s. Moreover, the “n-fold to virus (Feb2021)” value came out at 0.2719 in data set [1] (Feb2021, infectivity relative to virus only) and 0.2719 in data set [1] (setting [9]). Further, the “Rel-to EFC (Feb-2021)” value in data set [1] (setting [6]), in data set [1] (setting [7]) and in data set [1] (setting [11]) was 0.006472 each time. The infectivity result in data set [1] (setting [12]) is given as “low”. The “Log10 Inf. rel. to EF-C” value in data set [1] was -2.189. Also, the “Zeta Count Rate Category” value in data set [2] (category 1 / 0, no key given) was 1; in data set [2] (setting [13]), 1. The “Zeta Count Rate / kcps” value in data set [2] (derived count rate of scattered light), in data set [2] (setting [14]) and in data set [2] (setting [15]) was 301 kcps in each case. The “Zeta Pot. / mV” value in data set [3] came out at 11 mV; in data set [3] (mean, Std Zeta in next column) it was 11 mV; in data set [3] (mean, Std in separate column) it was 11 mV. The “Zeta category” value in data set [3] and in data set [3] (category from zeta potential) was 1 (+1 = if > 4 mV) throughout. Moreover, the “Zeta-pot. / mV” value in data set [3] is 11 mV.

On to KIKIQINMWQ [JG1], for which the “n-fold to virus (Feb2021)” value in data set [1] (setting [4]) and in data set [1] (setting [9]) was 12.47 in each case. In addition, the “Log10 of Rel to EFC (Feb2021)” value in data set [1] (setting [5]) is recorded as -0.5276; in data set [1] (Feb2021, log10 of infectivity relative to EF-C) it was -0.5276; in data set [1] (setting [10]) it was -0.5276. The “Rel-to EFC (Feb-2021)” value in data set [1] (setting [6]), in data set [1] (setting [7]) and in data set [1] (setting [11]) was 0.2968 in each case. The “Absolute Infectivity / RLU /s (Feb2021)” value in data set [1] (setting [8]) is given as 6650 RLU /s. The infectivity result in data set [1] (setting [12]) is “medium”. The “Log10 Inf. rel. to EF-C” value in data set [1] is recorded as -0.5276. For the same sequence, the “Zeta Count Rate Category” value in data set [2] (category 1/0, no key printed) is given as 1; in data set [2] (setting [13]), 1. Besides, the “Zeta Count Rate / kcps” value in data set [2] (setting [14]) and in data set [2] (setting [15]) was 2196 kcps throughout. Further, the “Zeta category” value in data set [3], in data set [3] (FigS26) and in data set [3] (category from zeta potential) was 1 (+1 = if > 4 mV) throughout. Besides, the “Zeta Pot. / mV” value in data set [3] (mean, Std Zeta in next column) is 14.87 mV; in data set [3] (mean, Std in separate column), 14.87 mV. For the same sequence, the “Zeta-pot. / mV” value in data set [3] is 14.87 mV.
